Laboratory results: US11912668B2, “GCN2 and perk kinase inhibitors and methods of use thereof” (Deciphera Pharmaceuticals, LLC, priority 2020, dated 2024)

Tests used:
Type in all cases: cell-based
[1] = tested on: ATF4 in HCT116 colorectal cancer cells; experiment: HCT116 amino acid starved (-AA) ATF4 assay (Western blot); conditions: Homo sapiens, HCT-116, 4 h
Summary of the method: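 HCT116 cells switched to amino-acid-free EBSS (10% dialyzed FBS, 5.5 mM glucose, vitamins) with serial compound dilutions for 4 h at 37° C. Lysates Western blotted for phospho-GCN2 (Thr899), total GCN2, ATF4 and beta-actin; IC50 values derived from quantified bands.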

[2] = tested on: ATF4 in CCRF-CEM leukemia cells (PERK); experiment: CCRF-CEM TG ATF4 ELISA, phenotypic assay for cellular inhibition of PERK preactivated by thapsigargin; conditions: Homo sapiens; Thapsigargin (1 μM) stimulated CCRF-CEM cells
CCRF-CEM leukemia cells = experiment: CCRF-CEM ASNase cell proliferation assay, phenotypic assay for cellular inhibition of GCN2; conditions: Homo sapiens; ASNase treated CCRF-CEM cells, 1 mU/mL ASNase, 72 h
Summary of the method: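 Cells were seeded at ten thousand per well in RPMI-1640 with 10% heat-inactivated FBS and treated in triplicate with serially diluted compound plus 1 mU/mL ASNase for 72 h at 37 °C, 5% CO2. Resazurin was then added for 6 h, with fluorescence read at ex 540/em 600 nm to derive IC50 values.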

[3] = target: PERK oligomers in HEK-293 cells (Homo sapiens (Human), UniProt Q9NZJ5); experiment: Detection of PERK oligomerization using NanoBRET; conditions: read-out: EC50 of stimulation of the formation of PERK oligomers
PERK oligomers in HEK-293 cells, sequence (Q9NZJ5 30-1116): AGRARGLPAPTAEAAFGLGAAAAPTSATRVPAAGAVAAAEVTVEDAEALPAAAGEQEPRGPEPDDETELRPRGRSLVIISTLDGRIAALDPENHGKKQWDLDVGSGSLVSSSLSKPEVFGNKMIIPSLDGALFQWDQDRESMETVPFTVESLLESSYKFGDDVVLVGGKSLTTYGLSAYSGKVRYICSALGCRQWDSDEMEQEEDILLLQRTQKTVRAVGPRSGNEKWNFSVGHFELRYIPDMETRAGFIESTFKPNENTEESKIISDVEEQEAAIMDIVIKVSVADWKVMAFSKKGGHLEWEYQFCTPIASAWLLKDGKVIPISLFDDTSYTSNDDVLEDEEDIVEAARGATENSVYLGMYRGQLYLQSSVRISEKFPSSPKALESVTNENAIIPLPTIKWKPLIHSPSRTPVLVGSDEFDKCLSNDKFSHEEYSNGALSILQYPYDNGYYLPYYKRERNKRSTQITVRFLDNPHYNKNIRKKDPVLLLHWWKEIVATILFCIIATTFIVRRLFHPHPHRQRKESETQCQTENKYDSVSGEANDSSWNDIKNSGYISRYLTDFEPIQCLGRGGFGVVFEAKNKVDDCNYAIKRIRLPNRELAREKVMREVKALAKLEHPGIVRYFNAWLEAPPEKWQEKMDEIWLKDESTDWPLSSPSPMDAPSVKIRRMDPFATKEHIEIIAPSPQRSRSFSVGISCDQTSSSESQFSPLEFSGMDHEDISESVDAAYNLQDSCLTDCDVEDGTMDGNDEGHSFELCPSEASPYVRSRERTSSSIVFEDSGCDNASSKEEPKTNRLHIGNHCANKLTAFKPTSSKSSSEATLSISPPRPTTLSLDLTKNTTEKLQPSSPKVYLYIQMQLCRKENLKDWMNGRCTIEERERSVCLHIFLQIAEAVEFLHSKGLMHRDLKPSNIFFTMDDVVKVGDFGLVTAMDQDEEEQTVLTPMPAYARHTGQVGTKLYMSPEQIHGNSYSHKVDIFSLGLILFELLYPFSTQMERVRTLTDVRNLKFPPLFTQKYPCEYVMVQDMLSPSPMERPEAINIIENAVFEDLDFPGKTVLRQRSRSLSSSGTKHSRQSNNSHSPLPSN
PERK oligomers in HEK-293 cells, sequence (Q9NZJ5 30-1116): as above
Description: Constructs for BRET were built using the NanoBRET™ Flexi® PPI Starter System (Promega, Madison, WI). The full-length PERK ORF was obtained from Genscript (Piscataway, NJ). HEK-293 cells (catalog #CRL-1573) were obtained from the American Type Culture Collection (ATTC, Manassas, VA). Cells were grown in MEM medium supplemented with 10% heat-inactivated fetal bovine serum (Invitrogen, Carlsbad, CA) and 1% Penicillin/Streptomycin/L-Glutamine at 37° C., 5% CO2, and 95% humidity. For BRET assays, cells were seeded at a density of 40,000 cells/mL in culture medium in 6-well plates and allowed to attach and recover. Cells were transfected with C-terminally tagged PERK-NLuc and C-terminally tagged PERK-Halo using Lipofectamine LTX (Thermo, Waltham, MA) and allowed to express proteins overnight at 37° C., 5% CO2, and 95% humidity. Cells were then detached from culture dishes using 0.05% trypsin-EDTA, collected, and diluted in assay medium consisting of Opti-MEM® I Reduced Serum Medium supplemented with 4% FBS (Thermo) to 22,000 cells/mL. Cells were dispensed into 96-well cell culture plates and HaloTag® NanoBRET™ 618 Ligand (Promega) was added to a final concentration of 100 nM. […] Donor ([…]) and acceptor (618) emissions were measured on a Synergy Neo2 Multi-Mode Reader (BioTek, Winooski, VT) within 10 min of substrate addition. […]

CNc1ncc2cc(-c3cccc(NS(=O)(=O)c4cc(Cl)cnc4OC)c3F)c(NC)nc2n1 [Compound 16]
IC50 [1]: ≤ 100 nM | IC50 [2]: 1000 to 10000 nM | IC50 (CCRF-CEM leukemia cells): ≤ 100 nM | EC50 [3]: 270 nM
